Measurements from patent US8936916B2, “Polypeptides for microbial detection” (3M Innovative Properties Company, priority 2008, dated 2015).
Ends that are not written are not given here. * marks the point of attachment. Myristoyl = CCCCCCCCCCCCCC(=O)*

Test: Permeabilization of DPPC liposomes containing glucose oxidase by phosphorylated dermatoxin (absorbance at 538 nm)
Format: biochemical
Protocol: DPPC liposomes containing 5 mg/mL glucose oxidase were prepared as described in Example 2. Glucose oxidase activity was measured in a coupled enzyme reaction with horseradish peroxidase as described in Example 2. The various solutions were quickly added to each of the wells of a microplate using a multichannel pipette and the reactions were started (at T=0 hours) with the addition to the wells of a solution containing glucose and 4-AAP.
The ability of the phosphorylated dermatoxin to open liposomes in the presence of phosphatase was tested by preparing a developing solution as described in Example 2. One hundred-fifty microliters of the developing solution was placed in each well of a 96-well microplate. To each column in the plate was added 20 μL of TES buffer containing one of the following concentrations of unpurified dermatoxin: 3.3 mg/mL, 3.3×10^−1 mg/mL, 3.3×10^−2 mg/mL, 3.3×10^−3 mg/mL, 3.3×10^−4 mg/mL, 3.3×10^−5 mg/mL, 3.3×10^−6 mg/mL, or 3.3×10^−7 mg/mL. Negative control wells contained TES buffer with no dermatoxin. Positive control wells buffer contained TES buffer with Triton X-100. Ten-microliter aliquots of the following concentrations of DPPC liposomes (containing 5 mg/mL glucose oxidase) were added to wells in duplicate rows: 0.1 mg lipid/mL, 0.02 mg lipid/mL, 0.004 mg lipid/mL, or plain buffer. To one of the duplicate rows was added 20 μL of 2.5 mg/mL alkaline phosphatase in TES. The other duplicate row received 20 μL of TES buffer. Thus the final dermatoxin concentration in the well varied from […], and the final lipid concentration in the well ranged from 0.005 mg lipid/mL to 2.0×10^−4 mg lipid/mL.
The absorbance was recorded at 538 nm on a SpectraMax M5 plate reader (Molecular Devices, Sunnyvale, Calif.) after two hours incubation at room temperature, and also after overnight incubation (approximately 18 hours). Since the absorbance of several wells was saturated, the overnight samples were diluted 1:10 with 50 mmol TES and the absorbance of the diluted samples was measured.

## SLGSFLKGVGTTLASVGKVVSDQFGKLLQAGQ (Myristoyl-SLGSFLKGVGTTLASVGKVVSDQFGKLLQAGQ; also: phosphorylated) [phosphorylated dermatoxin, fully phosphorylated dermatoxin, unpurified crude preparation]
2 hrs, lipid conc. 0, dermatoxin mass 3.3 × 10^−5 mg, with phosphatase
  Absorbance at 538 nm (cytolytic peptide activity): 0.122 absorbance units
2 hrs, lipid conc. 0, dermatoxin mass 3.3 × 10^−5 mg, without phosphatase
  Absorbance at 538 nm (cytolytic peptide activity): 0.121 absorbance units
2 hrs, lipid conc. 0, dermatoxin mass 3.3 × 10^−6 mg, with phosphatase
  Absorbance at 538 nm (cytolytic peptide activity): 0.120 absorbance units
2 hrs, lipid conc. 0, dermatoxin mass 3.3 × 10^−6 mg, without phosphatase
  Absorbance at 538 nm (cytolytic peptide activity): 0.115 absorbance units
2 hrs, lipid conc. 0, dermatoxin mass 3.3 × 10^−7 mg, with phosphatase
  Absorbance at 538 nm (cytolytic peptide activity): 0.118 absorbance units
2 hrs, lipid conc. 0, dermatoxin mass 3.3 × 10^−7 mg, without phosphatase
  Absorbance at 538 nm (cytolytic peptide activity): 0.116 absorbance units
2 hrs, lipid conc. 0, dermatoxin mass 3.3 × 10^−8 mg, with phosphatase
  Absorbance at 538 nm (cytolytic peptide activity): 0.119 absorbance units
2 hrs, lipid conc. 0, dermatoxin mass 3.3 × 10^−8 mg, without phosphatase
  Absorbance at 538 nm (cytolytic peptide activity): 0.114 absorbance units
2 hrs, lipid conc. 0, dermatoxin mass 3.3 × 10^−9 mg, with phosphatase
  Absorbance at 538 nm (cytolytic peptide activity): 0.118 absorbance units
2 hrs, lipid conc. 0, dermatoxin mass 3.3 × 10^−9 mg, without phosphatase
  Absorbance at 538 nm (cytolytic peptide activity): 0.113 absorbance units
2 hrs, lipid conc. 0.004, dermatoxin mass 3.3 × 10^−5 mg, with phosphatase
  Absorbance at 538 nm (cytolytic peptide activity): 0.204 absorbance units
2 hrs, lipid conc. 0.004, dermatoxin mass 3.3 × 10^−5 mg, without phosphatase
  Absorbance at 538 nm (cytolytic peptide activity): 0.200 absorbance units
2 hrs, lipid conc. 0.004, dermatoxin mass 3.3 × 10^−6 mg, with phosphatase
  Absorbance at 538 nm (cytolytic peptide activity): 0.197 absorbance units
2 hrs, lipid conc. 0.004, dermatoxin mass 3.3 × 10^−6 mg, without phosphatase
  Absorbance at 538 nm (cytolytic peptide activity): 0.161 absorbance units
2 hrs, lipid conc. 0.004, dermatoxin mass 3.3 × 10^−7 mg, with phosphatase
  Absorbance at 538 nm (cytolytic peptide activity): 0.130 absorbance units
2 hrs, lipid conc. 0.004, dermatoxin mass 3.3 × 10^−7 mg, without phosphatase
  Absorbance at 538 nm (cytolytic peptide activity): 0.119 absorbance units
2 hrs, lipid conc. 0.004, dermatoxin mass 3.3 × 10^−8 mg, with phosphatase
  Absorbance at 538 nm (cytolytic peptide activity): 0.126 absorbance units
2 hrs, lipid conc. 0.004, dermatoxin mass 3.3 × 10^−8 mg, without phosphatase
  Absorbance at 538 nm (cytolytic peptide activity): 0.111 absorbance units
2 hrs, lipid conc. 0.004, dermatoxin mass 3.3 × 10^−9 mg, with phosphatase
  Absorbance at 538 nm (cytolytic peptide activity): 0.126 absorbance units
2 hrs, lipid conc. 0.004, dermatoxin mass 3.3 × 10^−9 mg, without phosphatase
  Absorbance at 538 nm (cytolytic peptide activity): 0.115 absorbance units
2 hrs, lipid conc. 0.02, dermatoxin mass 3.3 × 10^−5 mg, with phosphatase
  Absorbance at 538 nm (cytolytic peptide activity): 0.546 absorbance units
2 hrs, lipid conc. 0.02, dermatoxin mass 3.3 × 10^−5 mg, without phosphatase
  Absorbance at 538 nm (cytolytic peptide activity): 0.633 absorbance units
2 hrs, lipid conc. 0.02, dermatoxin mass 3.3 × 10^−6 mg, with phosphatase
  Absorbance at 538 nm (cytolytic peptide activity): 0.480 absorbance units
2 hrs, lipid conc. 0.02, dermatoxin mass 3.3 × 10^−6 mg, without phosphatase
  Absorbance at 538 nm (cytolytic peptide activity): 0.263 absorbance units
2 hrs, lipid conc. 0.02, dermatoxin mass 3.3 × 10^−7 mg, with phosphatase
  Absorbance at 538 nm (cytolytic peptide activity): 0.140 absorbance units
2 hrs, lipid conc. 0.02, dermatoxin mass 3.3 × 10^−7 mg, without phosphatase
  Absorbance at 538 nm (cytolytic peptide activity): 0.141 absorbance units
2 hrs, lipid conc. 0.02, dermatoxin mass 3.3 × 10^−8 mg, with phosphatase
  Absorbance at 538 nm (cytolytic peptide activity): 0.132 absorbance units
2 hrs, lipid conc. 0.02, dermatoxin mass 3.3 × 10^−8 mg, without phosphatase
  Absorbance at 538 nm (cytolytic peptide activity): 0.111 absorbance units
2 hrs, lipid conc. 0.02, dermatoxin mass 3.3 × 10^−9 mg, with phosphatase
  Absorbance at 538 nm (cytolytic peptide activity): 0.124 absorbance units
2 hrs, lipid conc. 0.02, dermatoxin mass 3.3 × 10^−9 mg, without phosphatase
  Absorbance at 538 nm (cytolytic peptide activity): 0.114 absorbance units
2 hrs, lipid conc. 0.1, dermatoxin mass 3.3 × 10^−5 mg, with phosphatase
  Absorbance at 538 nm (cytolytic peptide activity): 2.034 absorbance units
2 hrs, lipid conc. 0.1, dermatoxin mass 3.3 × 10^−5 mg, without phosphatase
  Absorbance at 538 nm (cytolytic peptide activity): 1.521 absorbance units
2 hrs, lipid conc. 0.1, dermatoxin mass 3.3 × 10^−6 mg, with phosphatase
  Absorbance at 538 nm (cytolytic peptide activity): 1.473 absorbance units
2 hrs, lipid conc. 0.1, dermatoxin mass 3.3 × 10^−6 mg, without phosphatase
  Absorbance at 538 nm (cytolytic peptide activity): 0.759 absorbance units
2 hrs, lipid conc. 0.1, dermatoxin mass 3.3 × 10^−7 mg, with phosphatase
  Absorbance at 538 nm (cytolytic peptide activity): 0.173 absorbance units
2 hrs, lipid conc. 0.1, dermatoxin mass 3.3 × 10^−7 mg, without phosphatase
  Absorbance at 538 nm (cytolytic peptide activity): 0.267 absorbance units
2 hrs, lipid conc. 0.1, dermatoxin mass 3.3 × 10^−8 mg, with phosphatase
  Absorbance at 538 nm (cytolytic peptide activity): 0.136 absorbance units
2 hrs, lipid conc. 0.1, dermatoxin mass 3.3 × 10^−8 mg, without phosphatase
  Absorbance at 538 nm (cytolytic peptide activity): 0.132 absorbance units
2 hrs, lipid conc. 0.1, dermatoxin mass 3.3 × 10^−9 mg, with phosphatase
  Absorbance at 538 nm (cytolytic peptide activity): 0.134 absorbance units
2 hrs, lipid conc. 0.1, dermatoxin mass 3.3 × 10^−9 mg, without phosphatase
  Absorbance at 538 nm (cytolytic peptide activity): 0.121 absorbance units
18 hrs (d), 1:10-diluted sample, lipid conc. 0, dermatoxin mass 3.3 × 10^−5 mg, with phosphatase
  Absorbance at 538 nm (cytolytic peptide activity): 0.053 absorbance units
18 hrs (d), 1:10-diluted sample, lipid conc. 0, dermatoxin mass 3.3 × 10^−5 mg, without phosphatase
  Absorbance at 538 nm (cytolytic peptide activity): 0.054 absorbance units
18 hrs (d), 1:10-diluted sample, lipid conc. 0, dermatoxin mass 3.3 × 10^−6 mg, with phosphatase
  Absorbance at 538 nm (cytolytic peptide activity): 0.053 absorbance units
18 hrs (d), 1:10-diluted sample, lipid conc. 0, dermatoxin mass 3.3 × 10^−6 mg, without phosphatase
  Absorbance at 538 nm (cytolytic peptide activity): 0.052 absorbance units
18 hrs (d), 1:10-diluted sample, lipid conc. 0, dermatoxin mass 3.3 × 10^−7 mg, with phosphatase
  Absorbance at 538 nm (cytolytic peptide activity): 0.052 absorbance units
18 hrs (d), 1:10-diluted sample, lipid conc. 0, dermatoxin mass 3.3 × 10^−7 mg, without phosphatase
  Absorbance at 538 nm (cytolytic peptide activity): 0.054 absorbance units
18 hrs (d), 1:10-diluted sample, lipid conc. 0, dermatoxin mass 3.3 × 10^−8 mg, with phosphatase
  Absorbance at 538 nm (cytolytic peptide activity): 0.054 absorbance units
18 hrs (d), 1:10-diluted sample, lipid conc. 0, dermatoxin mass 3.3 × 10^−8 mg, without phosphatase
  Absorbance at 538 nm (cytolytic peptide activity): 0.053 absorbance units
18 hrs (d), 1:10-diluted sample, lipid conc. 0, dermatoxin mass 3.3 × 10^−9 mg, with phosphatase
  Absorbance at 538 nm (cytolytic peptide activity): 0.053 absorbance units
18 hrs (d), 1:10-diluted sample, lipid conc. 0, dermatoxin mass 3.3 × 10^−9 mg, without phosphatase
  Absorbance at 538 nm (cytolytic peptide activity): 0.053 absorbance units
18 hrs (d), 1:10-diluted sample, lipid conc. 0.004, dermatoxin mass 3.3 × 10^−5 mg, with phosphatase
  Absorbance at 538 nm (cytolytic peptide activity): 0.092 absorbance units
18 hrs (d), 1:10-diluted sample, lipid conc. 0.004, dermatoxin mass 3.3 × 10^−5 mg, without phosphatase
  Absorbance at 538 nm (cytolytic peptide activity): 0.096 absorbance units
18 hrs (d), 1:10-diluted sample, lipid conc. 0.004, dermatoxin mass 3.3 × 10^−6 mg, with phosphatase
  Absorbance at 538 nm (cytolytic peptide activity): 0.090 absorbance units
18 hrs (d), 1:10-diluted sample, lipid conc. 0.004, dermatoxin mass 3.3 × 10^−6 mg, without phosphatase
  Absorbance at 538 nm (cytolytic peptide activity): 0.081 absorbance units
18 hrs (d), 1:10-diluted sample, lipid conc. 0.004, dermatoxin mass 3.3 × 10^−7 mg, with phosphatase
  Absorbance at 538 nm (cytolytic peptide activity): 0.066 absorbance units
18 hrs (d), 1:10-diluted sample, lipid conc. 0.004, dermatoxin mass 3.3 × 10^−7 mg, without phosphatase
  Absorbance at 538 nm (cytolytic peptide activity): 0.056 absorbance units
18 hrs (d), 1:10-diluted sample, lipid conc. 0.004, dermatoxin mass 3.3 × 10^−8 mg, with phosphatase
  Absorbance at 538 nm (cytolytic peptide activity): 0.063 absorbance units
18 hrs (d), 1:10-diluted sample, lipid conc. 0.004, dermatoxin mass 3.3 × 10^−8 mg, without phosphatase
  Absorbance at 538 nm (cytolytic peptide activity): 0.054 absorbance units
18 hrs (d), 1:10-diluted sample, lipid conc. 0.004, dermatoxin mass 3.3 × 10^−9 mg, with phosphatase
  Absorbance at 538 nm (cytolytic peptide activity): 0.062 absorbance units
